Measured values: patent US12605452B2, “Compounds that degrade kinases and uses thereof” (Regents of the University of Minnesota, priority 2019, dated 2026)
One block for each compound: values may come before it.

Columns and labels:
Aurora-A [1] = molecular target: T1, Aurora-A (Homo sapiens, UniProt O14965); assay: in vitro kinase binding, Aurora-A
T1 sequence (O14965 1-403): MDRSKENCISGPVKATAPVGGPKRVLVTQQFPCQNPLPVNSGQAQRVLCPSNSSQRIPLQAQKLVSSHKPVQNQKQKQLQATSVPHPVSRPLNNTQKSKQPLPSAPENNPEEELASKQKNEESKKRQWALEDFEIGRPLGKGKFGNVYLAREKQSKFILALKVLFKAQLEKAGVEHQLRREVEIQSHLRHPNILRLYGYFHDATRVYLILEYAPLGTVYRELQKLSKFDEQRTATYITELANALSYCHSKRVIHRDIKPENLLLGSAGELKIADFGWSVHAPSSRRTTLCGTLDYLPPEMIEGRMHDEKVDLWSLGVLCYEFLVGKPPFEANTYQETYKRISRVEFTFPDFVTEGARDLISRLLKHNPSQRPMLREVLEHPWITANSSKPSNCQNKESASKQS

CDK4 = molecular target: T2, CDK4 (Homo sapiens, UniProt P11802); assay: immunoblotting, degradation of CDK4 in MCF-7 cells; type: cell-based
T2 construct: endogenous in cells; host or cells: MCF-7
Experimental: (§1) MCF-7 cells were cultured in complete Dulbecco's modified Eagle medium (DMEM) supplemented with 10% (vol/vol) heat-inactivated fetal bovine serum (FBS), 100 U/ml penicillin and 100 μg/ml streptomycin. HCC38 cells were cultured in RPMI medium with 10% FBS, 100 U/ml penicillin and 100 μg/ml streptomycin. Huh7 cells were cultured in DMEM medium with 10% FBS, 100 U/ml penicillin and 100 μg/ml streptomycin supplemented with 1% MEM non-essential amino acids (SIGMA M7145). IMR-32 and SK-N-BE(2) cells were cultured in Eagle's Minimum Essential Medium (EMEM) with 10% FBS, 100 U/ml penicillin and 100 μg/ml streptomycin. All the cell lines were maintained in a humidified incubator at 37° C. and 5% CO2.
(§2) Cells were treated with 13 and other compounds at indicated concentrations and incubation time. Cells were gently rinsed once with ice-cold PBS and then lysed in radioimmnuoprecipitation assay (RIPA) lysis buffer (50 mM Tris-HCl pH 7.4, 150 mM NaCl, 1% NP-40, 0.5% sodium deoxycholate, 0.1% SDS, 5 mM EDTA, 1 mM EGTA) supplemented with 1% protease inhibitor cocktail (Roche cOmplete) and 1% phosphatase inhibitor cocktail (PhosSTOP). Cell lysates were incubated on ice for 15 mins and then kept at −80° C. before further use. The lysates were thawed on ice and the supernatants were collected after centrifugation (@11,000 rpm) for 15 min at 4° C. The protein concentration was determined using the Pierce BCA protein Assay kit and normalized before the samples were reduced in […] sample buffer and denatured at 95° C. in a heated block for 10 mins. An equal amount of protein samples (10-30 μg per lane) were resolved using 4-20% Tris-glycine gels and transferred onto PVDF blotting membranes. Primary antibodies CDK4 (DCS-35, 1:2000), N-Myc (B8.4.B, 1:5000), p21 (F-5, 1:500), p53 (DO-1, 1:1000), Aurora-A (1G4, 1:1000), β-actin (A1978, 1:2000) were used for immunoblotting. The images were detected using Li-Cor Odyssey Fc imaging system and the immunoblots were quantified by densitometry using ImageJ software.

CDK4-CyclinD1 = CDK4-CyclinD1 (Homo sapiens, UniProt P11802); assay: in vitro kinase binding, CDK4-CyclinD1
Aurora-A [2] = molecular target: T1, Aurora-A; assay: immunoblotting, degradation of Aurora-A in MCF-7 cells; type: cell-based; parameters: endogenous in cells; host or cells: MCF-7
Experimental: as §1, §2

[3] = system: IMR-32 and SK-N-BE(2) cells; assay: Alamar blue cellular viability assay, MYCN amplified neuroblastoma cells; type: cell-based; conditions: 3 days
Experimental: as §1
(§3) Cancer cells were seeded in media (50 μL) 24 h prior to treatment with compounds in 96-well plates. For MCF-7 and Huh7 cells, the seeding density is 2,500 cells/well; for HCC38, the density is 2,000 cells/well; and for IMR-32 and SK-N-BE(s), the density is 5,000 cells/well. Compounds were serially diluted in pre-warmed media and dosed to cells (final volume=100 μL; final DMSO concentration=0.5%). […] After 2 hours treatment period, the fluorescence of each well was read using a BioTek Synergy H1 plate reader. […]

[4] = system: MCF-7 breast cancer cells; assay: cell cycle analysis using propidium iodide DNA staining; type: cell-based; conditions: compound treatment for 48 hours
N-Myc = assay: immunoblotting, N-Myc depletion in MYCN amplified neuroblastoma cell lines; type: cell-based; conditions: IMR-32 and SK-N-BE(2) cells, 0.5 μM, after 24 hours
Experimental: as §1
(§4) Cells were treated with 13 and other compounds at indicated concentrations and incubation time. […] The protein concentration was determined using the Pierce BCA protein Assay kit and normalized before the samples were reduced in […] sample buffer and denatured at 95° C. in a heated block for 10 mins. […] The images were detected using Li-Cor Odyssey Fc imaging system and the immunoblots were quantified by densitometry using ImageJ software.

Aurora-A and N-Myc = molecular target: T3, Aurora-A and N-Myc (Homo sapiens, UniProt O14965); assay: immunoblotting, dose-dependent degradation of Aurora-A and N-Myc in SK-N-BE(2) cells; type: cell-based; conditions: for degradation of Aurora-A and N-Myc (in words): 24 hours, dose series
T3 construct: endogenous in cells; host or cells: SK-N-BE(2)
T3 sequence (O14965 1-403): T1 sequence (O14965 1-403)
Experimental: as §1, §2

p53 and p21 = assay: immunoblotting, abundance of downstream signaling proteins in MCF-7 cells; type: cell-based; conditions: 4 hours and 24 hours
Experimental: as §1, §4

[5] = system: MCF-7, HCC38, Huh7, IMR-32 and SK-N-BE(2) cells; assay: Alamar blue cellular viability assay, all tested cell lines; type: cell-based; conditions: range over all tested cell lines; read-out: IC50, cytotoxicity
Experimental: as §1, §3

[6] = system: Cyclin D and CDK4 complexes; assay: Western blot, degradation of Cyclin D and CDK4 complexes in MCF-7 cells; type: cell-based; conditions: MCF-7 breast cancer cells
HCC38 = assay: Alamar blue cellular viability assay, HCC38; type: cell-based; conditions: HCC38, ribociclib-resistant, 5 days
Experimental: as §1, §3

MCF-7 cells = assay: Alamar blue cellular viability assay, MCF-7; type: cell-based
Experimental: as §1, §3

Huh7 = assay: Alamar blue cellular viability assay, Huh7; type: cell-based; conditions: Huh7, ribociclib-resistant, 5 days
Experimental: as §1, §3

cyclin D1 = assay: immunoblotting, degradation of cyclin D1 in MCF-7 cells; type: cell-based
Experimental: as §1, §4

Sequence of CDK4-CyclinD1 (P11802 whole entry): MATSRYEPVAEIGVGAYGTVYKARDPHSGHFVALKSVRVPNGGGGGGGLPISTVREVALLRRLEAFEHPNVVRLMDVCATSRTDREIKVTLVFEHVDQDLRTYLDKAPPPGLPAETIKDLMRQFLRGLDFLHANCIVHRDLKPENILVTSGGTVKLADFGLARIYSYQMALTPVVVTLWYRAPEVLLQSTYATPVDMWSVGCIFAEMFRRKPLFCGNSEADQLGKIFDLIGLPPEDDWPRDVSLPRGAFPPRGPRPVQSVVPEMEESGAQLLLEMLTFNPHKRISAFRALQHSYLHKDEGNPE
Sequence of CDK4-CyclinD1 (P24385 whole entry partner): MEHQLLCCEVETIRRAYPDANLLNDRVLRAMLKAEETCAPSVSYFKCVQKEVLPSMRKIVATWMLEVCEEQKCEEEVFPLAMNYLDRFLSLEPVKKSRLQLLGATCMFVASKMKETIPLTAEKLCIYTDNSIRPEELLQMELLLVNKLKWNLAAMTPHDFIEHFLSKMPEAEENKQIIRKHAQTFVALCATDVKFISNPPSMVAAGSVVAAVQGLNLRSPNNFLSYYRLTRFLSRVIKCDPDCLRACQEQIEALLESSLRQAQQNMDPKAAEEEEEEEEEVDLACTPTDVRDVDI
T2 sequence (P11802 whole entry): as the sequence (P11802 whole entry) above

SMILES: CN(C)C(=O)c1cc2cnc(Nc3ccc(C(=O)NCCCCCCNc4cccc5c4C(=O)N(C4CCC(=O)NC4=O)C5=O)cc3)nc2n1C1CCCC1 (stereo not drawn) [Compound 22, 7-cyclopentyl-2-((4-((6-((2-(2,6-dioxopiperidin-3-yl)-1,3-dioxoisoindolin-4-yl)amino)hexyl)carbamoyl)-phenyl)amino)-N,N-dimethyl-7H-pyrrolo[2,3-d]pyrimidine-6-carboxamide]
degradation of Cyclin D and CDK4 complexes [6]: degrades Cyclin D and CDK4 complexes in a dose-dependent and time-dependent manner

SMILES: CN(C)C(=O)c1cc2cnc(Nc3ccc(C(=O)NCCCCCCOc4cccc5c4C(=O)N(C4CCC(=O)N(C)C4=O)C5=O)cc3)nc2n1C1CCCC1 (stereo not drawn) [Compound 15, 7-cyclopentyl-N,N-dimethyl-2-((4-((6-((2-(1-methyl-2,6-dioxopiperidin-3-yl)-1,3-dioxoisoindolin-4-yl)oxy)hexyl)carbamoyl)phenyl)amino)-7H-pyrrolo[2,3-d]pyrimidine-6-carboxamide]
binding affinity with Aurora-A (in words) (Aurora-A [1]): maintains similar binding profile as the active form 13
potency shift from 13 (cytotoxicity) (HCC38): 8.2 fold
potency shift from 13 (cytotoxicity) (MCF-7 cells; MCF-7 cells, 5 days): 4,4 fold
potency shift from 13 (cytotoxicity) (Huh7): 20.8 fold
degradation of Aurora-A and N-Myc (in words) (Aurora-A and N-Myc): did not affect the protein abundance even at the highest test concentration

SMILES: CN(C)C(=O)c1cc2cnc(Nc3ccc(N4CCNCC4)cn3)nc2n1C1CCCC1 [ribociclib, reference compound]
cell cycle effect [4]: induces G0/G1 arrest

SMILES: Cc1nc2c(F)cc(-c3nc(Nc4ccc(NC(=O)CCCCCCOc5cccc6c5C(=O)N(C5CCC(=O)NC5=O)C6=O)cc4)ncc3F)cc2n1C(C)C (stereo not drawn) [Compound 18, 7-((2-(2,6-dioxopiperidin-3-yl)-1,3-dioxoisoindolin-4-yl)oxy)-N-(4-((5-fluoro-4-(4-fluoro-1-isopropyl-2-methyl-1H-benzo[d]imidazol-6-yl)pyrimidin-2-yl)amino)phenyl)heptanamide]
cytotoxicity in MCF-7 cells (in words) (MCF-7 cells; palbociclib- and abemaciclib-analogue-based degraders): the most potent compound

SMILES: CNC(=O)c1ccc(Nc2ncc3cc(C(=O)N(C)C)n(C4CCCC4)c3n2)nc1 [Compound 12, 7-cyclopentyl-N,N-dimethyl-2-((5-(methylcarbamoyl)pyridin-2-yl)amino)-7H-pyrrolo[2,3-d]pyrimidine-6-carboxamide]
binding affinity with Aurora-A (in words) (Aurora-A [1]): significant decrease of binding affinity with Aurora-A

More lines, main results first:

binding affinity with Aurora-A (in words) (Aurora-A [1]): weak binding
degradation of CDK4 (in words) (CDK4): weakly active
binding to CDK4 (in words) (CDK4-CyclinD1): weak binding
degradation of Aurora-A (in words) (Aurora-A [2]): weakly active
SMILES: CC(=O)c1c(C)c2cnc(Nc3ccc(C(=O)NCCCCCCOc4cccc5c4C(=O)N(C4CCC(=O)NC4=O)C5=O)cc3)nc2n(C2CCCC2)c1=O (stereo not drawn) [Compound 16, 4-((6-acetyl-8-cyclopentyl-5-methyl-7-oxo-7,8-dihydropyrido[2,3-d]pyrimidin-2-yl)amino)-N-(6-((2-(2,6-dioxopiperidin-3-yl)-1,3-dioxoisoindolin-4-yl)oxy)hexyl)benzamide]

potency for depleting N-Myc protein compared to MLN8237 and CD532 (Aurora-A and N-Myc): more potent
half-life of Aurora-A (Aurora-A [2]; 100 nM compound): 1.9 h
degradation potency for Aurora-A at high concentration (hook effect) (Aurora-A [2]; 2 μM): lower degradation potency
DC50 (Aurora-A [2]; 4 hours, read-out: DC50 (half-maximal degradation concentration) for Aurora-A): 20 nM
Dmax (Aurora-A [2]; MCF7, after 4 hours, read-out: Dmax (maximum degradation efficacy) for Aurora-A): ~94%
SMILES: CN(C)C(=O)c1cc2cnc(Nc3ccc(C(=O)NCCCCCCOc4cccc5c4C(=O)N(C4CCC(=O)NC4=O)C5=O)cc3)nc2n1C1CCCC1 (stereo not drawn) [Compound 13, 7-cyclopentyl-2-((4-((6-((2-(2,6-dioxopiperidin-3-yl)-1,3-dioxoisoindolin-4-yl)oxy)hexyl)carbamoyl)phenyl)amino)-N,N-dimethyl-7H-pyrrolo[2,3-d]pyrimidine-6-carboxamide]
binding affinity with Aurora-A (in words) (Aurora-A [1]): maintains its binding affinity to Aurora-A
cytotoxic potency compared to CD532 [3]: more potent than CD532
cell cycle effect [4]: potent G2/M phase arrest
degradation of CDK4 (in words) (CDK4): no obvious degradation of CDK4 was observed
depletion of N-Myc (N-Myc): almost complete depletion of N-Myc
degradation of Aurora-A and N-Myc (in words) (Aurora-A and N-Myc): induced the degradation of Aurora-A and N-Myc in a dose-dependent manner
effect on p21 abundance (p53 and p21): increased the abundance
effect on p53 (p53 and p21): significantly stabilized p53
degradation of Aurora-A (in words) (Aurora-A [2]): rapidly and potently induce the degradation of Aurora-A
IC50 [5]: 18 to 135 nM

Kd (Aurora-A [1]): 0.85 nM
Kd (CDK4-CyclinD1): 3 nM
SMILES: CNC(=O)c1ccc(Nc2ncc3cc(C(=O)N(C)C)n(C4CCCC4)c3n2)cc1 [Compound 11, 7-cyclopentyl-N,N-dimethyl-2-((4-(methylcarbamoyl)phenyl)amino)-7H-pyrrolo[2,3-d]pyrimidine-6-carboxamide]

Kd (Aurora-A [1]): 380 nM
SMILES: CN(C)C(=O)c1cc2cnc(Nc3ccc(C(=O)NCCCCCCOc4cccc5c4C(=O)N(C4CCC(=O)NC4=O)C5=O)cn3)nc2n1C1CCCC1 (stereo not drawn) [Compound 14, 7-cyclopentyl-2-((5-((6-((2-(2,6-dioxopiperidin-3-yl)-1,3-dioxoisoindolin-4-yl)oxy)hexyl)carbamo-yl)pyridin-2-yl)amino)-N,N-dimethyl-7H-pyrrolo[2,3-d]pyrimidine-6-carboxamide]

binding affinity with Aurora-A (in words) (Aurora-A [1]): weak binding affinity
degradation of CDK4 (in words) (CDK4): strong potency
Kd (CDK4-CyclinD1): 23 nM
degradation of Aurora-A (in words) (Aurora-A [2]): strong potency
SMILES: Cc1nc2c(F)cc(-c3nc(Nc4ccc(C(=O)NCCCCCCOc5cccc6c5C(=O)N(C5CCC(=O)NC5=O)C6=O)cc4)ncc3F)cc2n1C(C)C (stereo not drawn) [Compound 17, N-(6-((2-(2,6-dioxopiperidin-3-yl)-1,3-dioxoisoindolin-4-yl)oxy)hexyl)-4-((5-fluoro-4-(4-fluoro-1-isopropyl-2-methyl-1H-benzo[d]imidazol-6-yl)pyrimidin-2-yl)amino)benzamide]
degradation of cyclin D1 (in words) (cyclin D1): strong potency
